# pIC50: −log10 of the molar value.
# How the values were obtained:
# P2X purinoceptor 7 [1] = target: T1, P2X purinoceptor 7 (Homo sapiens, UniProt Q99572); experiment: Antagonist activity at human P2X7 receptor expressed in HEK293 by fluorescence plate reader analysis; assay type: cell-based
# T1 sequence (Q99572 whole entry): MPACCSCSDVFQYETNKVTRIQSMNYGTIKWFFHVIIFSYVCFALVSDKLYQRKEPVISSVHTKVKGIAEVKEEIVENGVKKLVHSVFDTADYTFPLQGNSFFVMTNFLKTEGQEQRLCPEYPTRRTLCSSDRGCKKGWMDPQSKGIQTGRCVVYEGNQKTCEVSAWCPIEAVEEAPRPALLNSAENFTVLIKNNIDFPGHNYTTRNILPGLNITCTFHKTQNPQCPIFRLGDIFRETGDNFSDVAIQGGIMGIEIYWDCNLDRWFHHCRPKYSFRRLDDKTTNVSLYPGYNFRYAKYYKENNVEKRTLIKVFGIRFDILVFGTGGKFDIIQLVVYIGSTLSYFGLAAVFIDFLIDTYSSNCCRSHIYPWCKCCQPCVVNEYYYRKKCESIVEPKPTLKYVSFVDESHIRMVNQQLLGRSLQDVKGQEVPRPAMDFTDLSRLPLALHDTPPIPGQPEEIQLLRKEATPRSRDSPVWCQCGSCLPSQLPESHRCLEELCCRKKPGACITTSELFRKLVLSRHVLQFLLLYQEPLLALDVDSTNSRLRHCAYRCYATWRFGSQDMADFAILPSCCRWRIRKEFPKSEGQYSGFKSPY
# P2X purinoceptor 7 [2] = target: T1, P2X purinoceptor 7; experiment: Antagonist activity at human P2X7 receptor
# P2X purinoceptor 7 [3] = target: T1, P2X purinoceptor 7; experiment: Antagonist activity at human P2X7 receptor expressed in 1321N1 cells by FLIPR assay; assay type: cell-based
# P2X purinoceptor 7 [4] = target: T1, P2X purinoceptor 7; experiment: Inhibition of human P2X7 receptor transfected in HEK293 cells by calcium influx assay; assay type: cell-based
# P2X purinoceptor 7 [5] = target: T2, P2X purinoceptor 7 (Mus musculus, UniProt Q9Z1M0); experiment: Antagonist activity at P2X7 receptor in mouse Peritoneal macrophage cells assessed as reduction in ATP induced IL-1 beta release; assay type: cell-based
# T2 sequence (Q9Z1M0 whole entry): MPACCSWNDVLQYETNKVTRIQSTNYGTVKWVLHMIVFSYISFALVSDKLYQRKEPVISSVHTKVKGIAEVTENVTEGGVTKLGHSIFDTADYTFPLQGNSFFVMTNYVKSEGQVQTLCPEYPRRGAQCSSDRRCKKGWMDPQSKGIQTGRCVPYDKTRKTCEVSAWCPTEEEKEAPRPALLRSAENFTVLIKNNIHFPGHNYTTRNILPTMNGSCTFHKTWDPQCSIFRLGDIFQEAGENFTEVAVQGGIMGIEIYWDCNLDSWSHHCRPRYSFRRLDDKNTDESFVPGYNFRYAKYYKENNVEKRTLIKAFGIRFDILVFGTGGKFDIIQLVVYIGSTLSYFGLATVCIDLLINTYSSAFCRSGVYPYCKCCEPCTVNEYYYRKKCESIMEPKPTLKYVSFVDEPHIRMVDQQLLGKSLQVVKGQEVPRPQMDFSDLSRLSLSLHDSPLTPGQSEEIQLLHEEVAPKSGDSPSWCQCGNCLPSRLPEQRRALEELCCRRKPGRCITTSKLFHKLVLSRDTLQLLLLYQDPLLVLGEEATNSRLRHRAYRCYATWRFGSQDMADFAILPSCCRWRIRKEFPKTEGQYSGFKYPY
# P2X purinoceptor 7 [6] = target: T1, P2X purinoceptor 7; experiment: Antagonist activity at P2X7 receptor in human THP-1 cells assessed as reduction in ATP induced IL-1 beta release; assay type: cell-based
# [7] = target: T3, P2X purinoceptor 7 (Mus musculus) (UniProt Q9Z1M0); experiment: Antagonist activity at P2X7 receptor in mouse Peritoneal macrophage cells assessed as ATP induced dye uptake at 10 uM relative to control; assay type: cell-based
# T3 sequence (whole entry): T2 sequence (Q9Z1M0 whole entry)
# P2X purinoceptor 7 [8] = target: T2, P2X purinoceptor 7; experiment: Antagonist activity at mouse P2X7 receptor by calcium flux assay
# P2X purinoceptor 7 [9] = target: T4, P2X purinoceptor 7 (Rattus norvegicus, UniProt Q64663); experiment: Antagonist activity at rat P2X7 receptor by calcium flux assay
# T4 sequence (Q64663 whole entry): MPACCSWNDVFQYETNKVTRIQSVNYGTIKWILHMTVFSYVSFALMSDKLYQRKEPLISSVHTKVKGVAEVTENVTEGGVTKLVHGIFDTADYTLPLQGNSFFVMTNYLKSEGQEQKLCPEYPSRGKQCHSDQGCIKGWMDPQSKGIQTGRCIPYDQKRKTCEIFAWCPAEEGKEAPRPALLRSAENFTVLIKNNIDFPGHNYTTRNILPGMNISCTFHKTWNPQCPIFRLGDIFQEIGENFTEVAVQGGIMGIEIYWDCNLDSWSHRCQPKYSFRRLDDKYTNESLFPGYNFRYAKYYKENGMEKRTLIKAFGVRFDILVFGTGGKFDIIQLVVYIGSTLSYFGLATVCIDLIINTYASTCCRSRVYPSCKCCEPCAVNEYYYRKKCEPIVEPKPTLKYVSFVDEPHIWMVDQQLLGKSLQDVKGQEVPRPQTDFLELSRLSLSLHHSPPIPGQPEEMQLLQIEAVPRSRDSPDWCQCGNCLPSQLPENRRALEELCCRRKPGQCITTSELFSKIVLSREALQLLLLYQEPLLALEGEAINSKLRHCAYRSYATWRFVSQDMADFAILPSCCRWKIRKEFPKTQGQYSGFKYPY
# P2X purinoceptor 7 [10] = target: T1, P2X purinoceptor 7; experiment: Antagonist activity at human P2X7 receptor by calcium flux assay
structure (smiles),measurement,setting,value
COCCn1cc(C(=O)NCc2ccco2)c2c(Cl)cccc21,pIC50,P2X purinoceptor 7 [1],< 6.00
COCCn1cc(C(=O)NCc2nc3ccccc3s2)c2c(Cl)cccc21,pIC50,P2X purinoceptor 7 [1],< 6.00
Cc1c(Cl)cccc1Nc1nc(=O)cc2n1C(c1ccccc1)COC2 (stereo not drawn),pIC50,P2X purinoceptor 7 [2],8.74
C[C@@H]1CCC[C@](O)(CNC(=O)c2cn(CC3CCCO3)c3cccc(Cl)c23)C1 (stereo partly drawn),pIC50,P2X purinoceptor 7 [1],8.00
CCOC(C)CNC(=O)c1cn(C2COC2)c2cccc(Cl)c12 (stereo not drawn),pIC50,P2X purinoceptor 7 [1],< 6.00
Cc1ccc(OCCO)cc1Nc1nc(=O)cnn1Cc1cc(F)c(F)c(F)c1,pIC50,P2X purinoceptor 7 [3],8.01
O=C1CCC(C(=O)NCc2cccc(C(F)(F)F)c2Cl)c2cccnc21 (stereo not drawn),pIC50,P2X purinoceptor 7 [4],> 7.30
Cc1ccc(Cn2c(Nc3cc4sc(C)nc4cc3C)nc(=O)c3[nH]cnc32)cc1,pIC50,P2X purinoceptor 7 [2],6.30
COc1cnc(C)c(Nc2nc(=O)c3c(n2Cc2cc(F)c(F)c(F)c2)CCC3)c1,pIC50,P2X purinoceptor 7 [2],7.00
Cc1c(Cl)cccc1Nc1nc(=O)cc2n1C(c1ccccc1)CC2 (stereo not drawn),pIC50,P2X purinoceptor 7 [2],> 8.00
Cc1cc(Nc2nc(=O)c3[nH]cnc3n2Cc2ccccc2)c(C)cc1Cl,pIC50,P2X purinoceptor 7 [2],> 8.00
CC1=C(Cn2cc(COCc3ccco3)nn2)C(=O)c2ccccc2C1=O,pIC50,P2X purinoceptor 7 [5],3.80
same,pIC50,P2X purinoceptor 7 [6],3.73
same,inhibition,[7]; filed as antagonist,60%
O=C(NCc1ccc(F)cc1Cl)[C@]1(F)CC[C@H](OCCO)c2ncccc21,pIC50,P2X purinoceptor 7 [4],> 7.30
Cc1ccc(N2CCCC2=O)cc1Nc1nc(=O)cnn1Cc1cc(F)c(F)c(F)c1,pIC50,P2X purinoceptor 7 [3],8.24
O=c1onc(Cc2c(F)cccc2Cl)n1CC1CCC(F)(F)CC1,pIC50,P2X purinoceptor 7 [8],> 6.70
same,pIC50,P2X purinoceptor 7 [9],> 6.70
same,pIC50,P2X purinoceptor 7 [10],> 6.70
CS(=O)(=O)C[C@]1(O)CC[C@@](F)(C(=O)NCc2ccc(Cl)cc2Cl)c2cccnc21,pIC50,P2X purinoceptor 7 [4],> 7.30
COc1ccc(C)c(Nc2nc(=O)cnn2Cc2cncc(F)c2)c1,pIC50,P2X purinoceptor 7 [3],7.00
COCCn1cc(C(=O)NCc2ccc3c(c2)OCO3)c2c(Cl)cccc21,pIC50,P2X purinoceptor 7 [1],< 6.00
O=C(NCc1cccc(C(F)(F)F)c1Cl)C1(F)CCC(O)c2ncccc21 (stereo not drawn),pIC50,P2X purinoceptor 7 [4],> 7.30
COc1ccc(Nc2nc(=O)c3onc(C)c3n2Cc2ccc(F)c(F)c2)c(C)c1,pIC50,P2X purinoceptor 7 [2],> 8.00
CC1=C(C(c2ccc([N+](=O)[O-])cc2)n2cc(COCc3ccco3)nn2)C(=O)c2ccccc2C1=O (stereo not drawn),pIC50,P2X purinoceptor 7 [5],3.73
same,pIC50,P2X purinoceptor 7 [6],3.74
same,inhibition,[7]; filed as antagonist,60%
CCN1C(=O)N=C(Nc2cc(C)c(C)cc2C)N2C1=NCC2c1ccccc1 (stereo not drawn),pIC50,P2X purinoceptor 7 [2],> 8.00
COc1ccc(Nc2nc(=O)c3[nH]cnc3n2Cc2ccc(F)c(F)c2)c(C)c1,pIC50,P2X purinoceptor 7 [2],> 8.00
O=c1onc(CN2CCOc3ccccc32)n1CC1CCC(F)(F)CC1,pIC50,P2X purinoceptor 7 [8],> 6.70
same,pIC50,P2X purinoceptor 7 [9],> 6.70
same,pIC50,P2X purinoceptor 7 [10],> 6.70
CC1=C(C(c2ccc(F)cc2)n2cc(COCc3ccco3)nn2)C(=O)c2ccccc2C1=O (stereo not drawn),inhibition,[7],< 60%
CN1C(=O)N=C(NCc2ccccc2)N2C1=NCC2c1cc(F)c(F)c(F)c1 (stereo not drawn),pIC50,P2X purinoceptor 7 [2],> 8.00
Cc1c(F)cc(CO)cc1Nc1nc(=O)cnn1Cc1cc(F)c(F)c(F)c1,pIC50,P2X purinoceptor 7 [3],8.52
COCCn1cc(C(=O)NCc2ccc(C(F)(F)F)cc2)c2c(Cl)cccc21,pIC50,P2X purinoceptor 7 [1],< 6.00
O=c1onc(Cc2c(F)cccc2Cl)n1CC1CCC(C(F)(F)F)CC1 (stereo not drawn),pIC50,P2X purinoceptor 7 [8],> 6.70
same,pIC50,P2X purinoceptor 7 [9],> 6.70
same,pIC50,P2X purinoceptor 7 [10],> 6.70
O=c1onc(Cc2ccccc2Cl)n1CC1CCC(F)(F)CC1,pIC50,P2X purinoceptor 7 [8],6.70
same,pIC50,P2X purinoceptor 7 [9],> 6.70
same,pIC50,P2X purinoceptor 7 [10],> 6.70
CC1=C(C(c2ccc(C)cc2)n2cc(COCc3ccco3)nn2)C(=O)c2ccccc2C1=O (stereo not drawn),inhibition,[7],< 60%

# From ChEMBL document CHEMBL5360537, “From lead to clinic: A review of the structural design of P2X7R antagonists” (Eur J Med Chem, 2023)
